# Molecular target: T1, PI3Kα H1047R (T47D cells) (Homo sapiens, UniProt P42336, H1047R)
# T1 construct: endogenous in cells; host or cells: T47D cells
# Assay: PI3Kα cellular assay: pAKT HTRF in T47D cells after EGF stimulation
# Format: cell-based
# Details: for IC50: T47D cells (PI3Kα H1047R), pAKT S473 HTRF
# Description: SKBR3 or T47D cells are seeded in DMEM containing 10% FBS at 25k cells/well into 96-well cell culture format. Cells are incubated overnight at 37° C. in a 5% CO2 incubator and the following day cell media is aspirated, adherent cells are washed 1× with room temperature PBS prior to serum-free media application. Cells are returned to 37° C. 5% CO2 incubator and incubated a further 16 hrs. Compounds are added to serum starved adherent cells with a top dose of 10,000 nM and 3× multiple dose reductions for a minimum dose of 0.5 nM diluted in DMSO. Cell/compound incubation continues for 1 hr in a 37° C., 5% CO2 incubator prior to 10 minute PIK3CA stimulation with 20 ng/ml EGF. Cells treated with 0.1% DMSO and 20 ng/mL EGF are employed as negative control, cells treated with 10 uM Alpelisib and 20 ng/mL EGF are employed as a positive control. After 10 mins, plates are removed from incubator and cells are lysed with buffer and shaking 45 minutes. […] 384 well plate is left overnight at room temperature before reading HTRF on an Envision plate reader.
# ND denotes value not determined with that assay for the specified compound; • for T47D (H1047R) selectivity over SKBR3 (WT): A denotes >20-fold; B denotes 20-fold≥value>5-fold; C denotes ≤5-fold. ND denotes value not determined with that assay for the specified compound; and • for T47D pAKT lipophilic efficiency (LiPE): A denotes >4; B denotes 4≥value>2; C denotes ≤2. ND denotes value not determined with that assay for the specified compound.
# [1] = selectivity of T47D (H1047R) over SKBR3 (WT) pAKT IC50
# [2] = selectivity T47D (H1047R) over SKBR3 (WT), pAKT HTRF
# [3] = 1 hr compound, 20 ng/ml EGF 10 min
# T1 sequence (P42336 whole entry H1047R): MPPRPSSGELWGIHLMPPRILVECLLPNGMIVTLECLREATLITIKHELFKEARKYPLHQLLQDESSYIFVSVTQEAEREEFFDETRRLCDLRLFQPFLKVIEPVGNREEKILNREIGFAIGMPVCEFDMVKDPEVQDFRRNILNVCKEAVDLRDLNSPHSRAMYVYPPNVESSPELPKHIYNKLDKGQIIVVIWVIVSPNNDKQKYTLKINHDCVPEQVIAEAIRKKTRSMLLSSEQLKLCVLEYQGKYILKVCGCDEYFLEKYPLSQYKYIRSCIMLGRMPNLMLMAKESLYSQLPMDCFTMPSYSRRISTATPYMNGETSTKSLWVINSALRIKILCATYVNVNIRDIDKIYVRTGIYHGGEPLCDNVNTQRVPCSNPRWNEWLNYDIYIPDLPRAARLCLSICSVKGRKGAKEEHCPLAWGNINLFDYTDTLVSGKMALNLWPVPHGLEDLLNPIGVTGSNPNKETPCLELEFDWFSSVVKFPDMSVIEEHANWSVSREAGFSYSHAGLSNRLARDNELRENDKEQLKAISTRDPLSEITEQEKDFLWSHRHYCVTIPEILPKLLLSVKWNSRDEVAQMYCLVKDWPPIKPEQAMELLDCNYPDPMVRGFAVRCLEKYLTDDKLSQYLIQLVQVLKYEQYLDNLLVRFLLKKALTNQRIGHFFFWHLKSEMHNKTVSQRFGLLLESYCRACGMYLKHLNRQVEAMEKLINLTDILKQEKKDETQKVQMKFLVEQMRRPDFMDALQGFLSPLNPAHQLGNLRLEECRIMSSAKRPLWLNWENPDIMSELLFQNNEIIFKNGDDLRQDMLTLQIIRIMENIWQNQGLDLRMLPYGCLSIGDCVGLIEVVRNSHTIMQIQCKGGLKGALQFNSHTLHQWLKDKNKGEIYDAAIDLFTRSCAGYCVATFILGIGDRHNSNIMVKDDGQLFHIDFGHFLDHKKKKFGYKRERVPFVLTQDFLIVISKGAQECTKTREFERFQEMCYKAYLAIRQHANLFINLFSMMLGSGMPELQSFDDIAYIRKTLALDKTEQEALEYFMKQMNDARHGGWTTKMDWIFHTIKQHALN
# T1 sequence (P27986 whole entry partner): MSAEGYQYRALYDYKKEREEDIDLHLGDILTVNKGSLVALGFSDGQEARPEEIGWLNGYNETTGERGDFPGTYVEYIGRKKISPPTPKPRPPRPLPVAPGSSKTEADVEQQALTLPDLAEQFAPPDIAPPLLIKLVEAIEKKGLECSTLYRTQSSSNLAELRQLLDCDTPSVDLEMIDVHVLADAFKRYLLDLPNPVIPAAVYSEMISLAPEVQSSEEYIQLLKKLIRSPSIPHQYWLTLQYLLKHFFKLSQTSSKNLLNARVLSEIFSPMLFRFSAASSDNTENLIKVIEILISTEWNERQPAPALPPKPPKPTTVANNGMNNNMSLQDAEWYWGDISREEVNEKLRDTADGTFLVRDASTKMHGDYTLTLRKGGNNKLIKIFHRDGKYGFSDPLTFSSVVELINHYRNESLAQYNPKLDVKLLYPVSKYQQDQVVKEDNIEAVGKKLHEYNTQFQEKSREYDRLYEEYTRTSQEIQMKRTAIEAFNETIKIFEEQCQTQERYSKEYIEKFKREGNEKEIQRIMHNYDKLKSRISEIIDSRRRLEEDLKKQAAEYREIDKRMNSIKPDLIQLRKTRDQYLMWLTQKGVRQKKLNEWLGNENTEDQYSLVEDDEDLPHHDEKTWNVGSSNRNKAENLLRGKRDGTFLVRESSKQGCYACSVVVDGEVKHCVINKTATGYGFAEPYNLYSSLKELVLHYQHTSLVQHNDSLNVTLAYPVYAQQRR
Compound,IC50 (EGF stimulation),T47D pAKT S473 HTRF IC50 (H1047R): T47D (H1047R) selectivity over SKBR3 (WT) [1],T47D pAKT S473 HTRF IC50 (H1047R): T47D (H1047R) selectivity over SKBR3 (WT) [2],IC50 [3]
Cc1cc([C@@H](C)Nc2ccccc2C(=O)O)c2nc(-c3ccc4c(c3)c(C3CC3)nn4C)cc(=O)n2c1 [Compound 748],< 100 nM,A (A denotes >20-fold),,
Cc1cc([C@H](C)Nc2ccccc2C(=O)O)c2nc(N3CCC(C)(C)CC3)cc(=O)n2c1 [Compound 432],,,C (C denotes ≤5-fold),
Cc1cc([C@@H](C)Nc2ccccc2C(=O)O)c2nc(C3C[C@@H](C)O[C@@H](C)C3)cc(=O)n2c1 (some centres unmarked) [Compound 924],100 to 500 nM,A (A denotes >20-fold),,
Cc1cc(C(C)CNc2ccccc2C(=O)O)c2nc(N3CCOCC3)cc(=O)n2c1 (centres unmarked) [Compound 735],,C (C denotes ≤5-fold),,
Cc1cc([C@@H](C)Nc2ccccc2C(=O)O)c2nc(-c3ccnc(C)n3)c(C)c(=O)n2c1 [Compound 1198],> 2000 nM,,C (C denotes ≤5-fold),
Cc1cc([C@@H](C)Nc2ccccc2S(N)(=O)=O)c2nc(-c3ccc(C4CCNCC4)nc3)c(C)c(=O)n2c1 [Compound 1344],,,B (B denotes 20-fold≥value>5-fold),
Cc1cc([C@H](C)Nc2ccccc2C(N)=O)c2nc(N3CCOCC3)cc(=O)n2c1 [Compound 147],,,B (B denotes 20-fold≥value>5-fold),500 to 2000 nM
Cc1cc([C@H](C)Nc2ccccc2C(=O)O)c2nc(C3C=NC(C4CC4)=CC3)cc(=O)n2c1 (some centres unmarked) [Compound 1112],,,B (B denotes 20-fold≥value>5-fold),
Cc1cc([C@H](C)Nc2ccccc2C(=O)O)c2nc(N3CCO[C@H](C)C3)cc(=O)n2c1 [Compound 374],,,A (A denotes >20-fold),< 100 nM
Cc1cc([C@@H](C)Nc2ccccc2C(=O)O)c2nc(-c3ccc4c(c3)COC4)cc(=O)n2c1 [Compound 851],< 100 nM,A (A denotes >20-fold),,
C=C(C)Nc1nn(C)c2ccc(-c3cc(=O)n4cc(C)cc([C@H](C)Nc5ccccc5C(=O)O)c4n3)cc12 [Compound 794],100 to 500 nM,A (A denotes >20-fold),,
Cc1cc([C@@H](C)Nc2ccccc2)c2nc(-c3ccc(F)cc3)c(C)c(=O)n2c1 [Compound 1123],> 2000 nM,,C (C denotes ≤5-fold),
Cc1cc([C@@H](C)Nc2ccccc2S(C)(=O)=O)c2nc(-c3ccc4c(C)cn(C)c4c3)c(C)c(=O)n2c1 [Compound 1061],,,C (C denotes ≤5-fold),
Cc1cc([C@H](C)Nc2ccccc2C(=O)O)c2nc(-c3ccc4nc(NC(=O)C5CC5)nn4c3)cc(=O)n2c1 [Compound 521],,,C (C denotes ≤5-fold),> 2000 nM
CC(=O)N1CCCC(c2cc(=O)n3cc(C)cc(C(C)Nc4ccccc4C(=O)O)c3n2)CC1 (centres unmarked) [Compound 511],,,C (C denotes ≤5-fold),> 2000 nM
Cc1cc([C@H](C)Nc2ccccc2C(=O)O)c2nc(-n3cc(C(N)=O)c4ccccc43)cc(=O)n2c1 [Compound 772],> 2000 nM,C (C denotes ≤5-fold),,
Cc1cc([C@H](C)Nc2ccccc2-c2ccnnc2)c2nc(N3Cc4ccccc4C3)c(C3CC3)c(=O)n2c1 [Compound 875],< 100 nM,A (A denotes >20-fold),,
CC(=O)N1CCC(c2ccc(-c3nc4c([C@H](C)Nc5ccccc5C(=O)O)cc(C)cn4c(=O)c3C)cc2)CC1 [Compound 1290],> 2000 nM,,C (C denotes ≤5-fold),
Cc1cc([C@@H](C)Nc2ccccc2C(N)=O)c2nc(-c3cnc(C)c(Cl)c3)c(C)c(=O)n2c1 [Compound 1135],100 to 500 nM,,A (A denotes >20-fold),
CC(=O)N[C@H]1CCCC(c2cc(=O)n3cc(C)cc(C(C)Nc4ccccc4C(=O)O)c3n2)C1 (some centres unmarked) [Compound 580],,,C (C denotes ≤5-fold),
"Cc1cc([C@@H](C)Nc2ccccc2C(=O)O)c2nc(-c3cccnc3)c(C)c(=O)n2c1 (single isomer, unassigned) [Compound 949]",< 100 nM,A (A denotes >20-fold),,

Compound,IC50 (EGF stimulation),T47D pAKT S473 HTRF IC50 (H1047R): T47D (H1047R) selectivity over SKBR3 (WT) [1],T47D pAKT S473 HTRF IC50 (H1047R): T47D (H1047R) selectivity over SKBR3 (WT) [2],IC50 [3]
"Cc1cc([C@H](C)Nc2ccccc2C(=O)O)c2nc(N3C[C@@H]4CC(F)(F)C[C@@H]4C3)cc(=O)n2c1 (single isomer, unassigned) [Compound 583]",,,A (A denotes >20-fold),< 100 nM
Cc1cc([C@@H](C)Nc2ccccc2C(=O)O)c2nc(N3CCC(C)CC3)cc(=O)n2c1 [Compound 359],,,A (A denotes >20-fold),< 100 nM
Cc1cc([C@H](C)Nc2ccccc2C(=O)O)c2nc(C3CCN(C(=O)C4(N)CC4)CC3)cc(=O)n2c1 [Compound 526],,,C (C denotes ≤5-fold),> 2000 nM
Cc1cc([C@@H](C)Nc2ccccc2-c2ccnnc2)c2nc(N3Cc4ccccc4C3)c(C3CC3)c(=O)n2c1 [Compound 847],> 2000 nM,C (C denotes ≤5-fold),,
CNC(=O)C#Cc1ccc(-c2nc3c([C@@H](C)Nc4ccccc4C(=O)O)cc(C)cn3c(=O)c2C)cc1F [Compound 1264],< 100 nM,,A (A denotes >20-fold),
"Cc1cc([C@@H](C)Nc2ccccc2C(=O)O)c2nc(-c3cccc(C#N)c3)c(C)c(=O)n2c1 (single isomer, unassigned) [Compound 967]",< 100 nM,A (A denotes >20-fold),,
Cc1cc([C@H](C)Nc2ccccc2C(=O)O)c2nc(N3CCC(C)(C)CC3)cc(=O)n2c1 [Compound 362],,,C (C denotes ≤5-fold),> 2000 nM
Cc1cc([C@@H](C)Nc2ccccc2C(N)=O)c2nc(-c3ccnc(C4CC4)c3)c(C)c(=O)n2c1 [Compound 1089],> 2000 nM,,C (C denotes ≤5-fold),
Cc1cc(C(C)Nc2ccccc2C(=O)O)c2nc(-c3ccc(C4CNC4)nc3)c(C)c(=O)n2c1 (centres unmarked) [Compound 1303],> 2000 nM,,C (C denotes ≤5-fold),
Cc1cc([C@H](C)Nc2ccccc2C(=O)O)c2nc(-c3cccc(F)c3)c(C(C)C)c(=O)n2c1 [Compound 1278],> 2000 nM,,C (C denotes ≤5-fold),
Cc1cc([C@H](C)Nc2ccccc2C(=O)O)c2nc(N3C[C@@H](C)O[C@@H](C)C3)cc(=O)n2c1 [Compound 320],,,C (C denotes ≤5-fold),> 2000 nM
Cc1cc([C@H](C)Nc2ccccc2C(=O)O)c2nc(-c3ccc4[nH]c(=O)sc4c3)c(C)c(=O)n2c1 [Compound 946],500 to 2000 nM,B (B denotes 20-fold≥value>5-fold),,
Cc1cc([C@@H](C)Nc2ccccc2S(C)(=O)=O)c2nc(-c3ccc(C4CCC(C)CC4)cc3)c(C)c(=O)n2c1 (some centres unmarked) [Compound 1354],,,C (C denotes ≤5-fold),
Cc1cc([C@H](C)Nc2ccccc2-c2ccnnc2)c2nc(N3C[C@@H](C)O[C@@H](C)C3)cc(=O)n2c1 [Compound 700],,A (A denotes >20-fold),,
Cc1cc(C(C)NC2=C(CC(=O)O)C=CCC2)c2nc(N3CCSCC3)cc(=O)n2c1 (centres unmarked) [Compound 284],,,C (C denotes ≤5-fold),> 2000 nM
Cc1cc(C(C)Nc2ccccc2C(=O)O)c2nc(-c3ccc4[nH]nc(-c5ccccn5)c4c3)cc(=O)n2c1 (centres unmarked) [Compound 318],,,C (C denotes ≤5-fold),> 2000 nM
CCn1nc(N)c2cc(-c3cc(=O)n4cc(C)cc([C@@H](C)Nc5ccccc5C(=O)O)c4n3)ccc21 [Compound 722],< 100 nM,A (A denotes >20-fold),,
Cc1cc([C@@H](C)Nc2ccccc2C(=O)O)c2nc(-c3ccc4c(c3)c(C(F)(F)F)nn4C)cc(=O)n2c1 [Compound 737],100 to 500 nM,A (A denotes >20-fold),,
Cc1cc([C@H](C)Nc2ccccc2C(=O)O)c2nc(-c3ccc4c(C)cn(C)c4c3)c(C)c(=O)n2c1 [Compound 985],> 2000 nM,C (C denotes ≤5-fold),,
Cc1cc(C(C)Nc2ccccc2C(=O)O)c2nc(-n3cnc4ccc(O)cc43)cc(=O)n2c1 (centres unmarked) [Compound 801],> 2000 nM,C (C denotes ≤5-fold),,
